Here are results for 2 substances from patent US7855076B2, “Use of discoidin domain receptor 1 (DDR1) and agents that affect the DDR1/collagen pathway” (The United States of America as represented by the …, priority 2002, dated 2010).

Assay [1] deals with THP-1 cells. The assay is described as follows: Adherence of THP-1 cells to coated plates. The class given is cell-based, human. Particulars: plates coated with fibronectin; DDR1a- and DDR1b-overexpressing cells. The procedure: 5×10^5 cells/ml were cultured on either BSA (10 mg/ml)- or collagen (20 μg/ml) and BSA-coated plates for 30 (FIG. 2A) or 120 minutes (FIG. 2B) at 37° C. in a 5% CO2 humidified incubator. Normal mouse IgG or anti-β1 integrin blocking IgG was added to measure the effect of β1 integrin in the assay. The number of adherent cells in each 400× visual field was counted. The results are presented as means ±SE of four individual fields. Data are representative of three experiments with two independent clones overexpressing either DDR1a or DDR1b.
To determine the effects of collagen on the functions of DDR1a- and DDR1b-overexpressing THP-1 cells, the cells were incubated on collagen-coated plastic plates. Twenty-four-well plates were coated with 100 μl/well human collagen type I (20 μg/ml) overnight at 4° C., and then with 200 μl/well 10 mg/ml bovine serum albumin (BSA) for 1 hour at 37° C. Cells were plated at the cell density of 1×10^5 cells/ml to the coated wells and were incubated for 30 minutes at 37° C. in 5% CO2 humidified atmosphere. Nonadherent cells were removed by washing three times with PBS. Cells that remained on the coated surface were considered to be adherent, and the number of cells in each 400 field was counted. Results were presented as mean ±SE per 400 field.

In assay [2] the test system is THP-1 cells. As to the kind of experiment: Cell migration assay, 24-well BioCoat Insert Chamber. The assay is classed as cell-based, human. Particulars: parental, mock-infected and DDR1a-overexpressing THP-1 cells; MCP-1 10 ng/ml in outer wells, membrane only, 3 hours. Here is the method: Migration of each cell type in response to medium (open column) or MCP-1 (closed column) was measured in the 24-well BioCoat Insert Chamber as described in Example 1 below. In FIG. 3A, results are shown from experiments where inner wells and outer wells were separated by a membrane only. Chambers were incubated at 37° C. for 3 hours. In FIG. 3B, results are shown from experiments where approximately 3 mm of collagen lattice was created above the membrane. Chambers were incubated at 37° C. for 8 hours. The number of migrated cells was counted in each 400× magnified field. The results were presented as migration index denoting the fold increase of cell migration over control (the number of migrated parental cells=1). Data are representative of three experiments with two independent clones overexpressing either DDR1, a or DDR1b.
The cell migration assay was performed by using the 24-well BioCoat Insert Chamber (Becton Dickinson, Bedford, Mass.). […] After a 3-hour incubation at 37° C., the numbers of cells that were adhering on the other side of the membrane and also had fallen into the outer wells were counted. […] After an 8-hour incubation at 37° C., the numbers of cells that were adhering on the other side of the membrane and also had fallen into the outer wells were counted. […]

On to fibronectin [reference compound], for which the “adherence or shape change” value in assay [1] is reported as “no effect”. Take “MCP-1: human recombinant monocyte chemoattractant protein-1”: in assay [2], the migration of cells result was “increased two- to threefold”.
